In paper PMC12150326 (The Journal of Organic Chemistry, 2025):
Where two headings read alike, the source gives them in different places.

Tests used:
bovine brain tubulin = assay: Tubulin polymerization inhibition; format: biochemical; conditions: 10 μM tubulin
How it was run: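 10 μM tubulin incubated 30 min at 37 °C in polymerization-promoting buffer (1 M NaGlutamate, 0.1 M Mes, 1 mM MgCl2, 0.5 mM GTP, pH 6.9) with 3.3 or 33 μM compound. After 100,000g spin for 8 min, polymerization taken as pelletable protein lost from supernatant.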

A549 = assay: Cell-growth inhibition (CellTiter); format: cell-based, human; conditions: Homo sapiens, A549, 72 h, A549, 3 days; read-out: Cell Growth Inhibition GI50 ± SE
How it was run: (§1)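 NCI-screen cell lines grown in DMEM with 10% FBS and exposed to serial compound dilutions for 3 days. Growth measured with CellTiter reagent, with growth inhibition derived per the manufacturer's method.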

M14 [1] = assay: Cell-growth inhibition (CellTiter); format: cell-based, human; conditions: Homo sapiens, M14, 72 h, M14, 3 days; read-out: Cell Growth Inhibition GI50 ± SE
How it was run: as §1

PC3 = assay: Cell-growth inhibition (CellTiter); format: cell-based, human; conditions: Homo sapiens, PC-3, 72 h, PC3, 3 days; read-out: Cell Growth Inhibition GI50 ± SE
How it was run: as §1

MDA-MB-231/ATCC = format: cell-based, human
Procedure: (§2) (aR)-6, (aS)-6, (aS)-iso -6, and (aR)-iso -6 were submitted to the 60 Cell Screen panel and evaluated at 5 doses (100 μM, 10 μM, 1 μM, 0.1 μM, and 0.01 μM). […] The complete report from this submission is available at the publisher’s Web site as a separate Supporting Information file. For COMPARE analysis, TGI levels of response for (aR)-DM-MTC (6) and (aS)-iso-DM-MTC were compared to those of several established tubulin inhibitors previously tested in the NCI-60 screen.

SK-MEL-28 = format: cell-based, human
Procedure: as §2

MALME-3M = format: cell-based, human
Procedure: as §2

HOP-62 = format: cell-based, human
Procedure: as §2

NCI 60 cell lines = format: cell-based, human
Procedure: as §2

UACC-62 = format: cell-based, human
Procedure: as §2

MOLT-4 = format: cell-based, human
Procedure: as §2

RXF 393 = format: cell-based, human
Procedure: as §2

OVCAR-5 = format: cell-based, human
Procedure: as §2

HL-60(TB) = format: cell-based, human
Procedure: as §2

A498 = format: cell-based, human
Procedure: as §2

IGROV1 = format: cell-based, human
Procedure: as §2

M14 [2] = format: cell-based, human
Procedure: as §2

SK-MEL-2 = format: cell-based, human
Procedure: as §2

SK-OV-3 = format: cell-based, human
Procedure: as §2

SK-MEL-5 = format: cell-based, human
Procedure: as §2

PC-3 = format: cell-based, human
Procedure: as §2

TK-10 = format: cell-based, human
Procedure: as §2

U251 = format: cell-based, human
Procedure: as §2

COc1cc(C)c(-c2ccc(=O)c(OC)cc2C)c(OC)c1OC (single isomer, unassigned) [(aS)-iso-6]
Polymerization Inhibition (%) 3.3 μM (bovine brain tubulin; 3.3 μM compound): 0%
Polymerization Inhibition (%) 33 μM (bovine brain tubulin; 33 μM compound): 0%
GI50 (A549): > 20 µM
GI50 (M14 [1]): > 20 µM
GI50 (PC3): > 20 µM
Log10GI50 (MDA-MB-231/ATCC): -4.63 Molar
Log10LC50 (MDA-MB-231/ATCC): > -4.00 Molar
Log10TGI (MDA-MB-231/ATCC): > -4.00 Molar
GI50 (MDA-MB-231/ATCC; Homo sapiens): 23.4 µM
Log10GI50 (MDA-MB-231/ATCC; […]): -4.63 Molar
Log10GI50 (SK-MEL-28): > -4.00 Molar
Log10LC50 (SK-MEL-28): > -4.00 Molar
Log10TGI (SK-MEL-28): > -4.00 Molar
Log10GI50 (MALME-3M): -4.42 Molar
Log10LC50 (MALME-3M): > -4.00 Molar
Log10TGI (MALME-3M): > -4.00 Molar
Log10GI50 (HOP-62): -4.46 Molar
Log10LC50 (HOP-62): > -4.00 Molar
Log10TGI (HOP-62): > -4.00 Molar
GI50 (HOP-62; Homo sapiens): 34.7 µM
Log10GI50 (HOP-62; […]): -4.46 Molar
fold less potent than (aR)-6 in NCI-60 screen (NCI 60 cell lines): approximately 10 fold
selectivity range (NCI 60 cell lines; NCI-60, GI50 level): 1.46 log units
Log10 Range at TGI (NCI 60 cell lines; NCI-60 cell line selectivity): 0.81
GI50 (NCI 60 cell lines; NCI-60 mean): 27 µM
Mean TGI (NCI 60 cell lines; NCI-60 mean total growth inhibition): 91 µM
Delta Log10GI50 (NCI 60 cell lines; mean graph): 0.89
Delta Log10LC50 (NCI 60 cell lines; mean graph): 0
Delta Log10TGI (NCI 60 cell lines; mean graph): 0.77
Range Log10GI50 (NCI 60 cell lines; mean graph): 1.46
Range Log10LC50 (NCI 60 cell lines; mean graph): 0.0
Range Log10TGI (NCI 60 cell lines; mean graph): 0.81
_MID Log10GI50 (NCI 60 cell lines; mean graph midpoint): -4.57 Molar
_MID Log10LC50 (NCI 60 cell lines; mean graph midpoint): -4.0 Molar
_MID Log10TGI (NCI 60 cell lines; mean graph midpoint): -4.04 Molar
Log10GI50 (UACC-62): -4.78 Molar
Log10LC50 (UACC-62): > -4.00 Molar
Log10TGI (UACC-62): > -4.00 Molar
GI50 (UACC-62; Homo sapiens): 16.6 µM
Log10GI50 (UACC-62; […]): -4.78 Molar
Log10GI50 (MOLT-4): -4.44 Molar
Log10LC50 (MOLT-4): > -4.00 Molar
Log10TGI (MOLT-4): > -4.00 Molar
GI50 (MOLT-4; Homo sapiens): 36.3 µM
Log10GI50 (MOLT-4; […]): -4.44 Molar
Log10GI50 (RXF 393): -4.68 Molar
Log10LC50 (RXF 393): > -4.00 Molar
Log10TGI (RXF 393): -4.12 Molar
GI50 (RXF 393; Homo sapiens): 20.9 µM
Log10GI50 (RXF 393; […]): -4.68 Molar
Log10GI50 (OVCAR-5): -4.38 Molar
Log10LC50 (OVCAR-5): > -4.00 Molar
Log10TGI (OVCAR-5): > -4.00 Molar
GI50 (OVCAR-5; Homo sapiens): 41.7 µM
Log10GI50 (OVCAR-5; […]): -4.38 Molar
Log10GI50 (HL-60(TB)): -4.68 Molar
Log10LC50 (HL-60(TB)): > -4.00 Molar
Log10TGI (HL-60(TB)): -4.02 Molar
GI50 (HL-60(TB); Homo sapiens): 20.9 µM
Log10GI50 (HL-60(TB); […]): -4.68 Molar
Log10GI50 (A498): -4.85 Molar
Log10LC50 (A498): > -4.00 Molar
Log10TGI (A498): -4.28 Molar
GI50 (A498; Homo sapiens): 14.1 µM
Log10GI50 (A498; […]): -4.85 Molar
Log10GI50 (IGROV1): -4.32 Molar
Log10LC50 (IGROV1): > -4.00 Molar
Log10TGI (IGROV1): > -4.00 Molar
GI50 (IGROV1; Homo sapiens, IGROV-1): 47.9 µM
Log10GI50 (IGROV1; […]): -4.32 Molar
Log10GI50 (M14 [2]): -4.76 Molar
Log10LC50 (M14 [2]): > -4.00 Molar
Log10TGI (M14 [2]): > -4.00 Molar
GI50 (M14 [2]; Homo sapiens): 17.4 µM
Log10GI50 (M14 [2]; […]): -4.76 Molar
Log10GI50 (SK-MEL-2): -4.69 Molar
Log10LC50 (SK-MEL-2): > -4.00 Molar
Log10TGI (SK-MEL-2): > -4.00 Molar
GI50 (SK-MEL-2; Homo sapiens): 20.4 µM
Log10GI50 (SK-MEL-2; […]): -4.69 Molar
Log10GI50 (SK-OV-3): -4.57 Molar
Log10LC50 (SK-OV-3): > -4.00 Molar
Log10TGI (SK-OV-3): > -4.00 Molar
GI50 (SK-OV-3; Homo sapiens): 26.9 µM
Log10GI50 (SK-OV-3; […]): -4.57 Molar
Log10GI50 (SK-MEL-5): -4.34 Molar
Log10LC50 (SK-MEL-5): > -4.00 Molar
Log10TGI (SK-MEL-5): > -4.00 Molar
GI50 (SK-MEL-5; Homo sapiens): 45.7 µM
Log10GI50 (SK-MEL-5; […]): -4.34 Molar
Log10GI50 (PC-3): -4.50 Molar
Log10LC50 (PC-3): > -4.00 Molar
Log10TGI (PC-3): > -4.00 Molar
GI50 (PC-3; Homo sapiens): 31.6 µM
Log10GI50 (PC-3; […]): -4.5 Molar
Log10GI50 (TK-10): > -4.00 Molar
Log10LC50 (TK-10): > -4.00 Molar
Log10TGI (TK-10): > -4.00 Molar
GI50 (TK-10; Homo sapiens): > 100 µM
Log10GI50 (TK-10; […]): > -4 Molar
Log10GI50 (U251): -4.51 Molar
Log10LC50 (U251): > -4.00 Molar
Log10TGI (U251): > -4.00 Molar
GI50 (U251; Homo sapiens, U-251): 18.8 µM
Log10GI50 (U251; […]): -4.725 Molar
